Test results taken from the NIST ThermoML archive (doi:10.1016/j.fluid.2014.04.021).

Conditions: 101 kPa, Liquid, Vibrating tube method

C1CCC2=NCCCN2CC1 [1,8-diaza-7-bicyclo[5.4.0]undecene]
Conditions | mass density [kg/m3]
293.15 K | 1019.84
298.15 K | 1016.15
303.15 K | 1012.45
308.15 K | 1008.73
313.15 K | 1005
318.15 K | 1001.25
323.15 K | 997.479
328.15 K | 993.692
333.15 K | 989.886
338.15 K | 986.062
343.15 K | 982.224
348.15 K | 978.366
353.15 K | 974.493
358.15 K | 970.601
